# Where a SMILES comes first, the peptide text is derived from it. The star is where a group is joined. Doxorubicin(3'-N) = COc1cccc2c1C(=O)c1c(O)c3c(c(O)c1C2=O)C[C@@](O)(C(=O)CO)C[C@@H]3O[C@H]1C[C@H](N*)[C@H](O)[C@H](C)O1; Hexanoyl(6-maleimido) = O=C1C=CC(=O)N1CCCCCC(=O)*
# Tests used:
# CT26 tumor = CT26 tumor immune model, tumor suppression and CD8+ T cell analysis; format: in vivo, BALB/c mice
# Protocol: • 1) CT26 cells were purchased from ATCC. […] The corresponding 5×10^6 cells were injected subcutaneously into the back of […] mice. After the size of tumors reached at least 100 mm^3, the mice were randomized into groups. Treatment was then initiated, with the day of treatment initiation being Day 1. • 3) The course of treatment. The drug was administered at an equimolar dose of 36 umol/kg. The control group was given normal saline. The drug was administered once a week for three week. • 4) Tumor CD8+ T cell analysis. Tumor tissue was homogenized, individual cells in the tumor were filtered, dissociated and washed twice with buffer, and then incubated with leukocyte common antigen CD45-PE and CD8-FITC-labeled antibodies for 1 hour at room temperature. The cells were washed twice with phosphate buffered saline containing 1% fetal bovine serum, and then the proportion of T lymphocyte antigen (CD8)-positive cells in leukocyte common antigen (CD45)-positive cells was analyzed by flow cytometry. An increase in the ratio indicates an increase in T lymphocytes and therefore an improvement in the immunity of the animal to the tumor. • 5) The grouping and test results are shown in Table 7.
# [1] = tested on: Human fibrosarcoma HT-1080 tumor tissue homogenate; test: Activation in HT-1080 tumor tissue homogenate; format: biochemical; details: HT-1080 homogenate pH 6.0, 37° C., 1 mg/ml
# Protocol: (§1) In the experiments of the present disclosure, 1 mg/ml of the sample compound was added to 100 μg of acidified tumor tissue homogenate (pH 6.0) at 37° C. The enzyme in the tumor tissue homogenate can cause the release of doxorubicin, and the reduction of compound and the increase of doxorubicin could be detected by HPLC to compare the activation efficiency of the drug in the tumor tissue.
# [2] = tested on: Human live cancer Hep G2 tumor tissue homogenate; test: Activation in Hep G2 tumor tissue homogenate; format: biochemical; details: Hep G2 homogenate pH 6.0, 37° C., 1 mg/ml
# Protocol: as §1
# CD8+ T cells = test: MTT cytotoxicity on CD8+ T cells; format: cell-based, C57BL/6 mouse; details: 48 hours, relative to C3
# Protocol: • 1) Take the spleen of C57BL/6 mouse, place it on the culture dish with 40 uM screen (ice bath), add about 10 mL of normal saline, and gently grind with sterile syringe core. • 2) Transfer the ground cell suspension into a 50 mL centrifuge tube, add about 5 mL of normal saline to rinse the petri dish, and also transfer it into the 50 mL centrifuge tube, and combine the suspensions. • 3) Centrifuge the cell suspension at 1000 r/min for 10 min, discard the supernatant, and add an appropriate volume of normal saline to resuspend. Then add 3 times volume of ammonium chloride erythrocyte lysate, pipetting evenly. After lysing on ice for about 10 min, add 10 mL of normal saline to stop the lysing, and centrifuge at 1000 r/min for 5 min. • 4) After centrifugation, discard the supernatant, add 10 mL of physiological saline, pipette evenly, centrifuge at 1000 r/min for 5 min, and repeat the above operation once. Cells were then resuspended in 10% RMPI 1640 medium for subsequent culture or in 0.5% BSA for subsequent T cell sorting. […]
# • A. Washing of CD3/CD28 magnetic beads: a. […] The cells were transferred to another tube to remove the beads as completely as possible and cultured in medium supplemented with […] (which could be increased according to the actual situation) and their status, proliferation and viability were monitored. […]
# [3] = Solution stability, HPLC and electrophoresis; details: 0.5 mg/ml, pH 5.5, 25° C.
# Protocol: Add 0.5 ml of sterile water for injection to prepare a 10 mg/ml mother solution. […] Take 30 ul of the mother solution, add 570 ul of buffer solutions with different pH values of 5.5, and prepare a 0.5 mg/ml sample solution. After the sample was clarified, it was placed in a 25° C./37° C. water bath, and after 8 hours, the sample was sampled by HPLC and electrophoresis to detect the content of the sample relative to 0 hours, and the solution stability data of different compounds could be obtained.
# [4] = drug 36 umol/kg once a week for three weeks, PD-1 antibody 5 mg/kg
SMILES,"CD8:CD45 (%) (CT26 tumor; CD8-positive among CD45-positive cells in tumor, flow cytometry)","therapeutic effect combined with PD-1, in words (CT26 tumor; combined with PD-1 versus single drug)",Tumor inhibition rate (%) Day 28 (CT26 tumor; [4]) [%],Tumor volume (mm^3) Day 28 (CT26 tumor; [4]) [mm^3],Compound activation ratios (%) [1] [%],Compound activation ratios (%) [2] [%],cytotoxicity against CD8+ T cells (FIG. 5) (CD8+ T cells),"Stability data of the solution, 8 hr (content relative to 0 hours) [3] [%]"
COc1cccc2c1C(=O)c1c(O)c3c(c(O)c1C2=O)C[C@@](O)(C(=O)CO)C[C@@H]3O[C@H]1C[C@H](NC(=O)[C@H](CC(C)C)NC(=O)[C@H](CC(N)=O)NC(=O)[C@H](C)NC(=O)[C@H](C)NC(=O)CCCCCN2C(=O)C=CC2=O)[C@H](O)[C@H](C)O1 [EMC-AANL-DOX] ({Hexanoyl(6-maleimido)}-AANL-{Doxorubicin(3'-N)}),8.9,improved compared with single drug,66.9,624.5 ± 313.6,44.7,75.3,,
COc1cccc2c1C(=O)c1c(O)c3c(c(O)c1C2=O)C[C@@](O)(C(=O)CO)C[C@@H]3O[C@H]1C[C@H](NC(=O)[C@H](CC(C)C)NC(=O)[C@H](CC(N)=O)NC(=O)[C@H](C)NC(=O)[C@H](C)NC(=O)CCOCCOCCNC(=O)CCN2C(=O)C=CC2=O)[C@H](O)[C@H](C)O1 [QHL-087-DOX],,,,,,,less cytotoxicity against CD8+ T cells,98.2
